How the values were obtained:
SRC-1 [1] = target: T1, SRC-1 (Homo sapiens, UniProt Q15788); assay: Gal4 luciferase reporter assay (pBIND-SRC-1 + pG5-LUC) in HeLa cells; format: cell-based; design: expressed in transfected cells; host or cells: HeLa; settings: 24-hour treatment, 5-8 μM, maximum over SRC-1/-2/-3
Protocol: The constructs expressing the Gal4 responsive luciferase reporter (pG5-luc), Gal4 DBD fusion with SRC-1, […] (pBIND-SRC-1/-2/-3), MMP2 or MMP13 promoter driven luciferase reporter (MMP2-luc, MMP13-luc) were prepared. Twenty-four hours before transfection, HeLa cells were plated in 24-well dishes. The indicated expression plasmids were transfected into cells using Lipofectamine 2000 according to the manufacturer's instructions.
After various compound treatments, cells were lysed in luciferase lysis buffer and assayed for luciferase activity using the ONE-Glo luciferase assay system (Promega, Madison, Wis.). All luciferase activities were normalized to protein concentration determined by Bradford assay (Bio-Rad, Hercules, Calif.).

HeLa cells = assay: Cytoplasmic vacuolization of cancer cells; format: cell-based; settings: HeLa, MCF-7 or MDA-MB-231 cells
VP16 = target: T2, VP16 (Human herpesvirus 1, UniProt P06492); assay: Gal4-VP16 + pG5-LUC luciferase assay in HeLa cells; format: cell-based; settings: 24 hours, only at higher compound concentrations
T2 construct: expressed in transfected cells; host or cells: HeLa
T2 sequence (P06492 413-490): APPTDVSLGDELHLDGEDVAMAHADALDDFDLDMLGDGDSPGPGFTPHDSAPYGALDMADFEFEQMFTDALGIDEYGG

MEF cells = assay: MTS cell viability assay, mouse embryonic fibroblasts; format: cell-based; settings: 48 hours
Protocol: Cell lines were maintained in DMEM (HeLa, MCF-7, HepG2), RPMI 1640 (H1299), or DMEM/F12 (PC-3) supplemented with 10% fetal calf serum, penicillin and streptomycin (100 U/ml). Primary mouse hepatocytes were isolated and cultured. Mouse embryonic fibroblasts (MEF) were cultured in DMEM. All cells were maintained at 37° C. under 5% CO2.
Cells were seeded in 96-well plates and allowed to reach 70% to 80% confluence. After indicated compound treatments, relative numbers of viable cells were measured by MTS assay using the Cell Titer 96 Aqueous One Solution Cell Proliferation Assay (Promega).

SRC-1 [2] = target: T1, SRC-1; assay: High throughput primary screen, HEK293 cells with pG5-luc and pBIND-SRC-1; format: cell-based; design: expressed in transfected cells; settings: among 359,484 compounds
Description: In a series of high throughput screens originally designed to identify SRC small molecule inhibitors, HEK293 cells transfected with a Gal4 responsive luciferase reporter (pG5-luc) and a construct encoding SRC-1, SRC-2 or SRC-3 fused with the DNA binding domain of Gal4 (pBIND-SRC-1, pBIND-SRC-2 or pBIND-SRC-3) were exposed to treatments with 359,484 compounds from a MLPCN chemical library (PubChem AID:588362, AID:652008 and AID:588354).

SRC-3-CBP-CARM1 complex = target: T3, SRC-3-CBP-CARM1 complex (Homo sapiens, UniProt Q9Y6Q9); assay: Coimmunoprecipitation of FLAG-SRC-3 with CBP and CARM1 in HeLa cells; format: cell-based; settings: HeLa cells overexpressing FLAG-SRC-3, one hour, dose-dependent
T3 construct: expressed in transfected cells; host or cells: HeLa
Protocol: (§1) For Western blotting, cells were harvested and lysed in lysis buffer (50 mM Tris, pH 8.0, 150 mM NaCl, 10% glycerol, 0.5% NP40, protease and phosphatase inhibitor) and then centrifuged for 15 min at 14000 rpm at 4° C. After total cellular protein concentration was determined by Bradford analysis (Bio-Rad, Hercules, Calif.), protein lysates were loaded onto and resolved by sodium dodecyl sulfate-polyacrylamide gel electrophoresis (SDS-PAGE) and transferred to PVDF membranes (BioRad) which were blocked and incubated with indicated antibodies. For immunoprecipitation, 10 μg of plasmid encoding FLAG-SRC-3 was transfected into HeLa cells with 90% confluence in one 10 cm plate with lipofectamine 2000 (Invitrogen). Twenty-four hours after transfection, the cells were treated with MCB-613 for one hour and lysed with lysis buffer (25 mM Tris-Cl pH7.5, 150 mM NaCl, 5% glycerol, 1 mM EDTA, 1% Triton X-100, protease and phosphatase inhibitor) at 4° C. After a 30-second sonication, the lysate was cleared by centrifugation at 14000 rpm at 4° C. for 15 minutes and was incubated with anti-Flag-M2 agarose affinity gel (Sigma) for four hours. The agarose gel was washed four times with washing buffer (25 mM Tris pH 8.0, 150 mM NaCl, 1 mM EDTA, 1% Triton X-100) and resuspended with SDS loading buffer for Western blotting. […]

Abl kinase = assay: CrkL (Y207) phosphorylation as marker for Abl activation in HeLa cells; format: cell-based; settings: 1 hour and 4 hours
Protocol: as §1

[3] = system: MCF-7 breast cancer xenograft; assay: MCF-7 xenograft tumor model; format: in vivo; settings: 20 mg/kg i.p. three times a week
Protocol: Twenty 6-8 week-old athymic nude female mice were obtained from Harlan. Two days before cancer cell injection, one estradiol pellet was embedded under the skin for each mouse and a new pellet was added twice at a one month interval. Following this, 1×10^6 MCF-7 cells […] mixed with equal volume of growth factor reduced matrigel (BD Biosciences) were injected into the fat pad of each of the 2nd pair mammary gland without clearing. The MCB-613 treatment which lasted for seven weeks was started approximately seven weeks after the cell injection when tumor sizes reached above 5 mm in diameter. Ten mice received MCB-613 (20 mg/kg) in saline by i.p. injection, whereas the control group contained 10 mice which received saline only. The compound was injected three times a week. The mice were weighed once a week and tumors were measured twice a week during the treatment period.
To further evaluate the anti-cancer potential of MCB-613, a MCF-7 breast cancer mouse xenograft model was employed to assess the tumor suppressive effects of MCB-613 in vivo. Tumors were established in athymic nude mice seven weeks after injection of MCF-7 cells into […] mammary fat pads. An MCB-613 treated group (n=10) received i.p. injection of the compound (20 mg/kg) three times a week, while a control group (n=10) was injected with a saline vehicle.

T1 sequence (Q15788 whole entry, the tested form may be a part): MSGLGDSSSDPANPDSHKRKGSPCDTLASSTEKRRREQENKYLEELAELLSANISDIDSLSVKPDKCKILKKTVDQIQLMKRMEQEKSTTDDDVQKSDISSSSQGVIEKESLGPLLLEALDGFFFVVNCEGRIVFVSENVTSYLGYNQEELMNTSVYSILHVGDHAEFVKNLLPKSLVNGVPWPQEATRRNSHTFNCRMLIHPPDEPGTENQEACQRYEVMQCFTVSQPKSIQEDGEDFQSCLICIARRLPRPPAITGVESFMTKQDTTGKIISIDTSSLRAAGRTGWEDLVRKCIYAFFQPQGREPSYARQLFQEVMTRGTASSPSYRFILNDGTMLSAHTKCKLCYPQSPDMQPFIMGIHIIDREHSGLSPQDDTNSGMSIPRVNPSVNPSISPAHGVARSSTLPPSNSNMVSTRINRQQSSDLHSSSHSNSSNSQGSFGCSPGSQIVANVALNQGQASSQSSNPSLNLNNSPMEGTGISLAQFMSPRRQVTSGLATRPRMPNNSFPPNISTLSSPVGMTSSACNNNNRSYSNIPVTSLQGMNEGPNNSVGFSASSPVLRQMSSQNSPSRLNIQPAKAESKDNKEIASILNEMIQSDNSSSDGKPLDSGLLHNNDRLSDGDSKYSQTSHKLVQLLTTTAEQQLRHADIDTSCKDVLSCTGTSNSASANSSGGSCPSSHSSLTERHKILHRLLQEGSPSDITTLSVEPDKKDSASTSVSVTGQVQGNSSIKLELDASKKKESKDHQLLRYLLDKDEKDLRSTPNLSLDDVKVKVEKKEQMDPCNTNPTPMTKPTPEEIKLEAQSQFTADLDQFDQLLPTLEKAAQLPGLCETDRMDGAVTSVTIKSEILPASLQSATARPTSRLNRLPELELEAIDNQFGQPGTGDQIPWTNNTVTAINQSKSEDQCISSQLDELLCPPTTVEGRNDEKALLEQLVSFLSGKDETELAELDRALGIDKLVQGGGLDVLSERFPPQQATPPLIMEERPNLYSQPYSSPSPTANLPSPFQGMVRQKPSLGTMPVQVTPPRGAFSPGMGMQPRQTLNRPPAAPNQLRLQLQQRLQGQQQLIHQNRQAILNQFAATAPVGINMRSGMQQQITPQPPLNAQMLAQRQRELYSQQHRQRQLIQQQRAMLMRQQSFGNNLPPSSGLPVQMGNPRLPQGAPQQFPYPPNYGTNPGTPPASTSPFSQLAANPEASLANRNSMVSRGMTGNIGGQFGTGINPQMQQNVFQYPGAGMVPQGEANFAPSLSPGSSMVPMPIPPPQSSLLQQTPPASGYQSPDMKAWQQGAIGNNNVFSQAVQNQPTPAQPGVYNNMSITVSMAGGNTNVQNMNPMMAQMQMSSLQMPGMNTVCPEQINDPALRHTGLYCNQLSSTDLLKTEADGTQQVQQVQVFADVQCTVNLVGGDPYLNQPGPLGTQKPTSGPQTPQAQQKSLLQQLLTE

CCC1CC(=Cc2cccnc2)C(=O)C(=Cc2cccnc2)C1 (stereo not shown) [MCB-613, 4-Ethyl-2,6-bis-pyridin-3-ylmethylene-cyclohexanone] was tested, and the “induction in the activity of pBIND-SRC-1” value (SRC-1 [1]) was ≤ 160 fold, the “vacuolization in cancer cells” value (HeLa cells) was “induced extensive vacuolization” and the “activity of GAL4-VP16 fusion protein” value (VP16) was “minimally increasing the activity”. For the same compound, the “cytotoxicity to normal cells” value (MEF cells) was “resistant”, the “activation of SRC-1 in the primary screen” value (SRC-1 [2]) was “greatest activation” and the “SRC-3's interaction with CBP and CARM1” value (SRC-3-CBP-CARM1 complex) was “increased”. The “activation of Abl (CrkL Y207 phosphorylation)” value (Abl kinase) was “activation of Abl could be observed as early as one hour”, the animal toxicity ([3]; 7 weeks) was “did not lead to obvious animal toxicity” and the “body weights between control and treated groups” value ([3]; 7 weeks) was “identical”. The “tumor volumes versus controls” value ([3]; after one week of treatment and throughout) was “significantly smaller than controls”.

From US11312676B2, “Small molecule stimulators of steroid receptor coactivator proteins and their use in the treatment of cancer” (BAYLOR COLLEGE OF MEDICINE, priority 2014, dated 2022)
